The text below walks through data of publication PMC7470027, “Synthesis and structure-activity relationships of novel 5-(hydroxamic acid)methyl oxazolidinone derivatives as 5-lipoxygenase inhibitors” (Journal of Enzyme Inhibition and Medicinal Chemistry, 2020).

The subject of data set [1] is 5-LO-dependent generation of LTB4 from activated human whole blood. The experiment in a line: Inhibition of 5-LO product LTB4 from activated human whole blood (LPS/FMLP). Type of data set: cell-based. The note with it: LPS-primed, FMLP-stimulated human whole blood; 95% confidence interval in brackets; read-out: Human whole blood LTB4 IC50 (CI). As to the method: All compounds were evaluated for inhibitory activity against the 5-LO-dependent generation of LTB4 from activated human whole blood. With ethical approval from the Health Sciences Centre Ethical Committee of Kuwait University, heparinised fresh human blood samples from apparently healthy individuals of both sexes were obtained from the Kuwait Central Blood Bank. All donors gave informed consent and the work was carried out in accordance with the “Declaration of Helsinki” for experiments involving human subjects. Aliquots of 185 µl of whole blood were dispensed into each well of a 96-well culture plate containing 5 µl of the priming agent, LPS (1 µg/ml final concentration). […] After further incubation for 15 min at 37 °C, 5 µl of FMLP (1 µM final concentration) was added to stimulate LT production. The reaction was stopped 15 min later, and the supernatants were recovered by centrifugation and stored at −40 °C pending analysis of LTB4 content.
(§1) Appropriately diluted supernatants were assayed for the released products – LTs (LTB4 and LTC4), by the enzyme immunoassay (EIA) method using assay kits supplied by R&D Systems (Minneapolis, MN) and following the manufacturer’s instructions.
(§2) All data were analysed using GraphPad Prism software (GraphPad Software, San Diego, CA). […] Differences between experimental groups were first analysed by one-way ANOVA, followed by Bonferroni’s post-hoc test. A p-value of less than 0.05 was taken as statistically significant.

Data set [2] has as its target T1, recombinant human 5-LO (Homo sapiens, UniProt P09917).
T1 sequence (P09917 1-674): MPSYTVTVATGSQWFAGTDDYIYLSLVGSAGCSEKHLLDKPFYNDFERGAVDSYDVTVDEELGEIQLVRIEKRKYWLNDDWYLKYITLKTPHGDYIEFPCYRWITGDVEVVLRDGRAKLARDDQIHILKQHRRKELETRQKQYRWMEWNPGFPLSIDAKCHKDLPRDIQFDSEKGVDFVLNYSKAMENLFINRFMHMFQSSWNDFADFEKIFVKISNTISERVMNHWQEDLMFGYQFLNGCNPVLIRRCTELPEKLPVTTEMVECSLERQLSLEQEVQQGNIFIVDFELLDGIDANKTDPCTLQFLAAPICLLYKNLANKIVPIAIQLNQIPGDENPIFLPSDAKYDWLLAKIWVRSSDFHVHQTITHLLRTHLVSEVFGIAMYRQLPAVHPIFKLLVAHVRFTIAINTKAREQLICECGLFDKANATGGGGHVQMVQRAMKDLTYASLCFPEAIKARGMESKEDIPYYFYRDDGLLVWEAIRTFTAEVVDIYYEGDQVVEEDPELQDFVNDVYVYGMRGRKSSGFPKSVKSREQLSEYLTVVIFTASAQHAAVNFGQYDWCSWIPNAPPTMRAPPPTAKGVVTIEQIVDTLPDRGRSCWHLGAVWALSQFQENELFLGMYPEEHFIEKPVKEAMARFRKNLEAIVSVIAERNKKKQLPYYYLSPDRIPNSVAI
The experiment in a line: Direct inhibition of 5-LO activity in a cell-free assay (H2DCF-DA fluorescence). Type of data set: biochemical. Particulars: for IC50: cell-free, recombinant human 5-LO, 95% confidence interval in brackets. The method, then: The assay was based on the oxidation of the dye 2′,7′-dichlorodihydrofluorescein diacetate (H2DCF-DA) to a highly fluorescent product by 5-LO enzymatic products. H2DCF-DA (60 µM) was first pre-cleaved by incubating with 450 mU/ml recombinant human 5-LO enzyme in Tris buffer (containing 50 mM Tris, pH = 7.5, 2 mM EDTA, 2 mM CaCl2, 1 mM DTT and 0.6 U/ml glutathione peroxidase) for 10 min at room temperature. […] After 10 min incubation at room temperature, the reaction was started with the addition of 50 µl of substrate solution (Tris buffer containing 20 µM ATP and 20 µM arachidonic acid (AA). After a further 20 min, the reaction was terminated with 100 µl acetonitrile. Fluorescence was read at 500 nm excitation and 520 nm emission, with Novostar^R microplate reader (BMG Labtech, Offenburg, Germany). Appropriate controls, including 100 µM nordihydroguaiaretic acid (NDGA), were included to isolate only the 5-LO-attributable, NDGA-inhibitable RFU values.
as §2

For data set [3], the system named is 5-LO product LTC4 from isolated human monocytes. The experiment in a line: Inhibition of 5-LO product LTC4 from isolated human monocytes (A23187). Type of data set: cell-based. The note with it: calcium ionophore A23187, 95% confidence interval in brackets, read-out: Human monocyte LTC4 IC50 (CI). As to the method:
Mononuclear cells were first isolated from heparinised blood using the Ficoll-Hypaque gradient centrifugation method. Monocytes were subsequently purified by adherence to plastic according to standard protocols. The purity of the adherent monocytes (CD14+) was routinely confirmed by flow cytometry to be >95% and viability (by trypan blue exclusion method) was routinely >97%. Adherent monocytes were then washed and incubated in 190 µl culture medium RPMI-1640 supplemented with 100 U/ml penicillin, 100 µg/ml streptomycin and 10% heat-inactivated foetal bovine serum (Sigma-Aldrich, St Louis, MO). […] After further incubation for 15 min, the culture supernatants were recovered by centrifugation and stored at −40 °C pending LTC4 determination.
as §1, §2

Data set [4] has as its system 5-LO product LTC4 from allergen/IgE-activated bone marrow-derived mouse mast cells (BMMC). The experiment in a line: Inhibition of 5-LO product LTC4 from allergen/IgE-activated bone marrow-derived mouse mast cells (BMMC). Type of data set: cell-based. Particulars: anti-DNP IgE/DNP-BSA-activated BMMC, 95% confidence interval in brackets, read-out: Mouse mast cell LTC4 IC50 (CI). The method, then: Bone marrow-derived mast cells (BMMC) were generated from pathogen-free 5 to 7-weeks-old male Balb/c mice according to the method of Davis et al.[28]. Essentially, bone marrow cells were obtained by flushing the femoral bone marrow and the recovered cells cultured in RPMI 1640 medium supplemented with 10% FBS, 100 U/ml penicillin, and 100 µg/ml streptomycin, 25 mM HEPES, 1.0 mM sodium pyruvate, 0.1 mM nonessential amino acids, 0.0035% 2-mercaptoethanol, and 30 ng/ml mouse recombinant IL-3, with culture medium, replaced every 2 days. Cells were used after 4–8 weeks of culture, by which time at least 97% of the cells would have differentiated into mast cells, as routinely obtained in our laboratory.
The generated BMMCs were seeded at 5 × 10^4 cells/well in a 96-well flat-bottom culture plate and passively sensitised overnight with 0.5 µg/ml anti-DNP monoclonal IgE antibody. The cells were then washed twice to remove any unbound antibody and subsequently resuspended in reaction buffer (135 mM NaCl, 5 mM KCl, 1.8 mM CaCl2, 1 mM MgCl2, 5.6 mM glucose, 0.05% BSA and 20 mM HEPES, pH 7.4). They were then pre-incubated with the test compounds (0.001 − 30 μM) or the solvent (0.05% DMSO) for 15 min before being stimulated with the specific antigen, DNP-BSA (10–30 ng/ml). After 30 min incubation at 37 °C, the amount of LTC4 released into the supernatant was determined by ELISA as described below.
as §1, §2

Data set [5] deals with leukotriene (LT) biosynthesis / 5-LO. The experiment in a line: Overall activity across the four in vitro test systems (three cell-based LT release assays and 5-LO). The note with it: for Activity across the in vitro test systems (in words): cell-based systems and cell-free 5-LO. The method, then:
Furthermore, in order to confirm that the in vitro inhibitory activity of the compounds was not due to the direct toxic effects on the cells, the effect of the compounds on the viability of isolated human monocytes after 3 h and 24 h treatment was performed. Finally, in vivo anti-inflammatory studies were performed using the zymosan-induced peritoneal inflammation model in mice, which is a well-known model in which the LTs are known to play a critical role[26].
The inhibitory activity data for the tested compounds obtained in three cell-based in vitro test systems - LTB4 release from human whole blood, LTC4 release from isolated human monocytes and LTC4 release from IgE/antigen-activated mouse mast cells, are shown in Table 1. Similar data on the direct inhibitory effect on the enzymatic activity of recombinant human 5-LO, together with the calculated Clog P (log of partition coefficient) values, which is an indication of the lipophilicity of each compound, are also shown in Table 1.

Where [6] appears, read: read-out: Direct inhibition of 5-LO activity. IC50 (CI).

Read-outs that look alike come from different tables or passages of the source.

As to `O=C(C1CCC1)N(O)C[C@H]1CN(c2ccc(N3CCOCC3)c(F)c2)C(=O)O1` [PH-245, (R)-N-((3-(3-fluoro-4-morpholinophenyl)-2-oxooxazolidin-5-yl)methyl)-N-hydroxycyclobutanecarboxamide], in data set [1], the IC50 was found to be 3.4 µM.

On to `CCCCC(=O)N(O)C[C@H]1CN(c2ccc(N3CCOCC3)c(F)c2)C(=O)O1` [PH-241, (R)-N-((3-(3-fluoro-4-morpholinophenyl)-2-oxooxazolidin-5-yl)methyl)-N-hydroxypentanamide], for which the IC50 turned out to be 3.3 µM in data set [2], 3.2 µM in data set [3] (Monocyte), 2.8 µM in data set [4] (Mus musculus) and 2.2 µM in data set [1]. For the same molecule, the “Activity across the in vitro test systems (in words)” value in data set [5] was “active in all four test systems”.

For the molecule `CCCCCCCC(=O)N(O)C[C@H]1CN(c2ccc(N3CCOCC3)c(F)c2)C(=O)O1` [PH-251, (R)-N-((3-(3-fluoro-4-morpholinophenyl)-2-oxooxazolidin-5-yl)methyl)-N-hydroxyoctanamide], the IC50 in data set [2] was 1.6 µM; in data set [3] (Monocyte), 2.4 µM; in data set [4] (Mus musculus), 0.2 µM; in data set [1] it was 1.9 µM; in data set [5] (summary statements, in vitro test systems, read-out: IC50 (test system not specified / across test systems)) it was less than 1 µM. Further, the “Activity across the in vitro test systems (in words)” value in data set [5] is recorded as “active in all four test systems”.

Take `O=C(C1CCCC1)N(O)C[C@H]1CN(c2ccc(N3CCOCC3)c(F)c2)C(=O)O1` [PH-244, (R)-N-((3-(3-fluoro-4-morpholinophenyl)-2-oxooxazolidin-5-yl)methyl)-N-hydroxycyclopentanecarboxamide]: the IC50 in data set [1] worked out at 5.5 µM.

As for `CCCCCC(=O)N(O)C[C@H]1CN(c2ccc(N3CCOCC3)c(F)c2)C(=O)O1` [PH-247, (R)-N-((3-(3-fluoro-4-morpholinophenyl)-2-oxooxazolidin-5-yl)methyl)-N-hydroxyhexanamide], the melting point was in the range of 118.5 to 120.5 °C. Further, the IC50 in data set [2] is 3.4 µM. Further, the IC50 in data set [3] (Monocyte) was 2.5 µM. In addition, the IC50 in data set [4] (Mus musculus) was found to be 2.9 µM. Moreover, the IC50 in data set [1] amounted to 2.3 µM. Besides, the “Activity across the in vitro test systems (in words)” value in data set [5] is “active in all four test systems”.

Consider `CC(C)CC(=O)N(O)C[C@H]1CN(c2ccc(N3CCOCC3)c(F)c2)C(=O)O1` [PH-239, (R)-N-((3-(3-fluoro-4-morpholinophenyl)-2-oxooxazolidin-5-yl)methyl)-N-hydroxy-3-methylbutanamide], for which the melting point lay in the range of 122 to 124.5 °C. The IC50 in data set [2] was 4.7 µM. The IC50 in data set [3] (Monocyte) worked out at 8 µM. Also, the IC50 in data set [4] (Mus musculus) came out at 3.1 µM. Also, in data set [1], the IC50 was 3.5 µM. For the same molecule, the “Activity across the in vitro test systems (in words)” value in data set [5] is “active in all four test systems”.

`CC(C)CC(=O)ON(C[C@H]1CN(c2ccc(N3CCOCC3)c(F)c2)C(=O)O1)C(=O)CC(C)C` [PH-237, (R)-N-((3-(3-fluoro-4-morpholinophenyl)-2-oxooxazolidin-5-yl)methyl)-3-methyl-N-((3-methylbutanoyl)oxy)butanamide] came in with a melting point of 89 to 90 °C. Moreover, the IC50 in data set [2] was more than 30 µM. The IC50 in data set [3] (Monocyte) is more than 50 µM. In addition, the IC50 in data set [4] (Mus musculus) was more than 50 µM. Also, the IC50 in data set [1] is more than 50 µM. Further, the “Activity across the in vitro test systems (in words)” value in data set [5] is “inactive in both systems”.

For the molecule `CC(c1cc2ccccc2s1)N(O)C(N)=O` (racemic) [Zileuton, (±)1–(1-(benzo[b]thiophen-2-yl)-ethyl)-1-hydroxyurea, reference compound], the IC50 in data set [3] (Monocyte) amounted to 0.5 µM; in data set [4] (Mus musculus), 0.4 µM; in data set [1], 0.7 µM.

With `O=C(C1CC1)N(O)C[C@H]1CN(c2ccc(N3CCOCC3)c(F)c2)C(=O)O1` [PH-211], the IC50 in data set [2] (setting [6]) was 3.5 µM; in data set [3] it was 7.5 µM; in data set [4], 8.7 µM; in data set [1] it was 1.3 µM. Moreover, the “Activity across the in vitro test systems (in words)” value in data set [5] is recorded as “active in all four test systems”.

For the molecule `CCCCCC(=O)ON(C[C@H]1CN(c2ccc(N3CCOCC3)c(F)c2)C(=O)O1)C(=O)CCCCC` [PH-246], the “Inhibition of isolated 5-LO enzyme activity (in words)” value in data set [2] (cell-free experiments) was “very weak”. For the same molecule, the IC50 in data set [2] (setting [6]) was determined as 21.6 µM; in data set [3], 7.1 µM; in data set [4], 3.3 µM; in data set [1], 1.5 µM.

For orientation: melting point means the temperature of the solid-liquid transition.
